Assay: (§1) The drug is tested on WLS-220 corresponding to human gut metagenome with ENA study accession number: PRJEB37062 and ENA sample accession number: ERS12561769 for biotransformation under anaerobic condition. The drug concentrations were measured over 9 timepoints collected between 0 and 24 hours of incubation by liquid-chromatography-coupled mass spectrometry (LC–MS)
Details: 2 µM
With OC(Cn1cncn1)(Cn1cncn1)c1ccc(F)cc1F [FLUCONAZOLE] the “Bacterial Biotransformation” value was “Compound NOT metabolized”. For Cc1ccc(-c2cc(C(F)(F)F)nn2-c2ccc(S(N)(=O)=O)cc2)cc1 [CELECOXIB], the “Bacterial Biotransformation” value was “Compound metabolized”.

Details: human gut metagenome, 24 h, 2 µM
With OC(Cn1cncn1)(Cn1cncn1)c1ccc(F)cc1F [FLUCONAZOLE] the “Bacterial Biotransformation” value was “Compound NOT metabolized”. For Cc1ccc(-c2cc(C(F)(F)F)nn2-c2ccc(S(N)(=O)=O)cc2)cc1 [CELECOXIB], the “Bacterial Biotransformation” value was “Compound NOT metabolized”.

Assay: as §1, with “WLS-350” for “WLS-220”, “ERS12561789” for “ERS12561769”
Details: 2 µM
For OC(Cn1cncn1)(Cn1cncn1)c1ccc(F)cc1F [FLUCONAZOLE], the “Bacterial Biotransformation” value was “Compound metabolized”. With Cc1ccc(-c2cc(C(F)(F)F)nn2-c2ccc(S(N)(=O)=O)cc2)cc1 [CELECOXIB] the “Bacterial Biotransformation” value was “Compound NOT metabolized”.

Assay: as §1, with “Z-004” for “WLS-220”, “to” for “to human gut”, “ERS12561804” for “ERS12561769”
Details: 2 µM
With OC(Cn1cncn1)(Cn1cncn1)c1ccc(F)cc1F [FLUCONAZOLE] the “Bacterial Biotransformation” value was “Compound NOT metabolized”. In the case of Cc1ccc(-c2cc(C(F)(F)F)nn2-c2ccc(S(N)(=O)=O)cc2)cc1 [CELECOXIB], the “Bacterial Biotransformation” value is reported as “Compound NOT metabolized”.

Details: human gut metagenome, 24 h, 2 µM
Remark: another data set of the same source
For OC(Cn1cncn1)(Cn1cncn1)c1ccc(F)cc1F [FLUCONAZOLE], the “Bacterial Biotransformation” value was “Compound metabolized”. For Cc1ccc(-c2cc(C(F)(F)F)nn2-c2ccc(S(N)(=O)=O)cc2)cc1 [CELECOXIB], the “Bacterial Biotransformation” value was “Compound metabolized”.

Details: human gut metagenome, 24 h, 2 µM
Remark: another data set of the same source
For OC(Cn1cncn1)(Cn1cncn1)c1ccc(F)cc1F [FLUCONAZOLE], the “Bacterial Biotransformation” value was “Compound metabolized”. For Cc1ccc(-c2cc(C(F)(F)F)nn2-c2ccc(S(N)(=O)=O)cc2)cc1 [CELECOXIB], the “Bacterial Biotransformation” value was “Compound metabolized”.

Assay: as §1, with “Z-029” for “WLS-220”, “rat” for “human”, “ERS12561828” for “ERS12561769”
Details: 2 µM
With OC(Cn1cncn1)(Cn1cncn1)c1ccc(F)cc1F [FLUCONAZOLE] the “Bacterial Biotransformation” value was “Compound NOT metabolized”. In the case of Cc1ccc(-c2cc(C(F)(F)F)nn2-c2ccc(S(N)(=O)=O)cc2)cc1 [CELECOXIB], the “Bacterial Biotransformation” value is reported as “Compound NOT metabolized”.

Details: human gut metagenome, 24 h, 2 µM
Remark: another data set of the same source
In the case of OC(Cn1cncn1)(Cn1cncn1)c1ccc(F)cc1F [FLUCONAZOLE], the “Bacterial Biotransformation” value is reported as “Compound metabolized”. For Cc1ccc(-c2cc(C(F)(F)F)nn2-c2ccc(S(N)(=O)=O)cc2)cc1 [CELECOXIB], the “Bacterial Biotransformation” value was “Compound metabolized”.

Assay: as §1, with “Z-005” for “WLS-220”, “to” for “to human gut”, “ERS12561805” for “ERS12561769”
Details: 2 µM
With OC(Cn1cncn1)(Cn1cncn1)c1ccc(F)cc1F [FLUCONAZOLE] the “Bacterial Biotransformation” value was “Compound NOT metabolized”. With Cc1ccc(-c2cc(C(F)(F)F)nn2-c2ccc(S(N)(=O)=O)cc2)cc1 [CELECOXIB] the “Bacterial Biotransformation” value was “Compound NOT metabolized”.

Assay: as §1, with “Z-017” for “WLS-220”, “mouse” for “human”, “ERS12561816” for “ERS12561769”
Details: 2 µM
With OC(Cn1cncn1)(Cn1cncn1)c1ccc(F)cc1F [FLUCONAZOLE] the “Bacterial Biotransformation” value was “Compound NOT metabolized”. For Cc1ccc(-c2cc(C(F)(F)F)nn2-c2ccc(S(N)(=O)=O)cc2)cc1 [CELECOXIB], the “Bacterial Biotransformation” value was “Compound NOT metabolized”.

Details: human gut metagenome, 24 h, 2 µM
Remark: another data set of the same source
With OC(Cn1cncn1)(Cn1cncn1)c1ccc(F)cc1F [FLUCONAZOLE] the “Bacterial Biotransformation” value was “Compound metabolized”. With Cc1ccc(-c2cc(C(F)(F)F)nn2-c2ccc(S(N)(=O)=O)cc2)cc1 [CELECOXIB] the “Bacterial Biotransformation” value was “Compound NOT metabolized”.

Details: human gut metagenome, 24 h, 2 µM
Remark: another data set of the same source
In the case of OC(Cn1cncn1)(Cn1cncn1)c1ccc(F)cc1F [FLUCONAZOLE], the “Bacterial Biotransformation” value is reported as “Compound NOT metabolized”. In the case of Cc1ccc(-c2cc(C(F)(F)F)nn2-c2ccc(S(N)(=O)=O)cc2)cc1 [CELECOXIB], the “Bacterial Biotransformation” value is reported as “Compound NOT metabolized”.

Details: human gut metagenome, 24 h, 2 µM
Remark: another data set of the same source
For OC(Cn1cncn1)(Cn1cncn1)c1ccc(F)cc1F [FLUCONAZOLE], the “Bacterial Biotransformation” value was “Compound metabolized”. With Cc1ccc(-c2cc(C(F)(F)F)nn2-c2ccc(S(N)(=O)=O)cc2)cc1 [CELECOXIB] the “Bacterial Biotransformation” value was “Compound NOT metabolized”.

Assay: as §1, with “WLS-069” for “WLS-220”, “ERS12561748” for “ERS12561769”
Details: 2 µM
For OC(Cn1cncn1)(Cn1cncn1)c1ccc(F)cc1F [FLUCONAZOLE], the “Bacterial Biotransformation” value was “Compound metabolized”. With Cc1ccc(-c2cc(C(F)(F)F)nn2-c2ccc(S(N)(=O)=O)cc2)cc1 [CELECOXIB] the “Bacterial Biotransformation” value was “Compound metabolized”.

Details: human gut metagenome, 24 h, 2 µM
Remark: another data set of the same source
In the case of OC(Cn1cncn1)(Cn1cncn1)c1ccc(F)cc1F [FLUCONAZOLE], the “Bacterial Biotransformation” value is reported as “Compound NOT metabolized”. In the case of Cc1ccc(-c2cc(C(F)(F)F)nn2-c2ccc(S(N)(=O)=O)cc2)cc1 [CELECOXIB], the “Bacterial Biotransformation” value is reported as “Compound NOT metabolized”.

Assay: as §1, with “Z-006” for “WLS-220”, “mouse” for “human”, “ERS12561806” for “ERS12561769”
Details: 2 µM
In the case of OC(Cn1cncn1)(Cn1cncn1)c1ccc(F)cc1F [FLUCONAZOLE], the “Bacterial Biotransformation” value is reported as “Compound NOT metabolized”. For Cc1ccc(-c2cc(C(F)(F)F)nn2-c2ccc(S(N)(=O)=O)cc2)cc1 [CELECOXIB], the “Bacterial Biotransformation” value was “Compound NOT metabolized”.

Details: human gut metagenome, 24 h, 2 µM
Remark: another data set of the same source
In the case of OC(Cn1cncn1)(Cn1cncn1)c1ccc(F)cc1F [FLUCONAZOLE], the “Bacterial Biotransformation” value is reported as “Compound NOT metabolized”. For Cc1ccc(-c2cc(C(F)(F)F)nn2-c2ccc(S(N)(=O)=O)cc2)cc1 [CELECOXIB], the “Bacterial Biotransformation” value was “Compound metabolized”.

Assay: as §1, with “WLS-052” for “WLS-220”, “ERS12561747” for “ERS12561769”
Details: 2 µM
For OC(Cn1cncn1)(Cn1cncn1)c1ccc(F)cc1F [FLUCONAZOLE], the “Bacterial Biotransformation” value was “Compound NOT metabolized”. For Cc1ccc(-c2cc(C(F)(F)F)nn2-c2ccc(S(N)(=O)=O)cc2)cc1 [CELECOXIB], the “Bacterial Biotransformation” value was “Compound metabolized”.

Details: human gut metagenome, 24 h, 2 µM
Remark: another data set of the same source
With OC(Cn1cncn1)(Cn1cncn1)c1ccc(F)cc1F [FLUCONAZOLE] the “Bacterial Biotransformation” value was “Compound metabolized”. With Cc1ccc(-c2cc(C(F)(F)F)nn2-c2ccc(S(N)(=O)=O)cc2)cc1 [CELECOXIB] the “Bacterial Biotransformation” value was “Compound metabolized”.

Assay: as §1, with “Z-022” for “WLS-220”, “mouse” for “human”, “ERS12561821” for “ERS12561769”
Details: 2 µM
In the case of OC(Cn1cncn1)(Cn1cncn1)c1ccc(F)cc1F [FLUCONAZOLE], the “Bacterial Biotransformation” value is reported as “Compound metabolized”. With Cc1ccc(-c2cc(C(F)(F)F)nn2-c2ccc(S(N)(=O)=O)cc2)cc1 [CELECOXIB] the “Bacterial Biotransformation” value was “Compound NOT metabolized”.

— ChEMBL document CHEMBL5724914, “Linking interpersonal differences in gut microbiota composition and drug biotransformation activity” (2024)
Note: call rule not given here.
